Test results taken from patent US20210077529A1, “T-CELL EXHAUSTION, METHODS & COMPOSITIONS RELATING THERETO” (MEMORIAL SLOAN KETTERING CANCER CENTER, priority 2018, published 2021).
Entries after “also recorded” stand apart in the source; their conditions may differ.

Columns and labels:
Assay type in all cases: cell-based, mouse
[1] = tested on: chronically stimulated T-cells; test: Proliferation of chronically stimulated T-cells (polyclonal in vitro exhaustion model, Coulter counter counts); details: CD3+ T cells, chronic anti-CD3/anti-CD28 stimulation days 2-8, 10 mM N-acetylcysteine
Procedure: FIG. 13A-B. N-acetylcysteine restores proliferation of chronically stimulated T-cells. FIG. 13A—schematic representation of model/method. Isolated CD3+ T cells were stimulated for 2 days with plate-bound anti-CD3 and anti-CD28. Following 2-day stimulation, cells were either incubated in IL-2 alone or serially re-plated on plates coated with anti-CD3 and anti-CD28 every 2 days for an additional 6 days in the presence or absence of 10 mM N-acetylcysteine. Cells were counted every 2 days using a Coulter counter. […] FIG. 3A and FIG. 3F provide schematic representations of a polyclonal T cell exhaustion model in which a generalized TCR and CD28 stimulus is used. Utilizing a generalized TCR and CD28 stimulus has multiple advantages. […] We therefore evaluated whether adding N-acetylcysteine (10 mM) to T-cell media every 48 hours during days 2-8 of chronic stimulation would be sufficient to reverse the effects of chronic stimulation on T-cell growth and effector function. […] To determine this, T-cells that had been acutely or chronically stimulated in the presence or absence of 10 mM N-acetylcysteine were assessed for Tcf7 expression via real-time quantitative PCR. […]

[2] = tested on: chronically stimulated T-cells; test: Cytokine production of chronically stimulated T-cells after re-stimulation (flow cytometry); details: CD3+ T cells, 8 days of culture, N-acetylcysteine 10 mM
Procedure: (§1) FIG. 14A-D. N-acetylcysteine reverses endogenous T-cell exhaustion. Isolated CD3+ T cells were stimulated acutely or chronically as described elsewhere herein in the without anti-PD-L1 (FIG. 14A) or in presence or absence of anti-PD-L1 (FIG. 14B) and/or N-acetylcysteine (10 mM) (FIG. 14C). Following 8 days of culture, cells were re-stimulated for cytokine production (above) or co-cultured with tumor cells expressing specific antigen.
The expression of the inhibitory receptors PD-1, LAG-3, and PD-L1 and the effector cytokines IFNγ, TNFα and IL2 was analyzed by flow cytometry. Briefly, cells that were stimulated acutely or chronically for 8 days as described herein were re-stimulated after overnight rest using 50 ng/mL phorbol myristate acetate (PMA) and 500 ng/mL ionomycin. […]
The in vitro system that developed and described herein allowed for metabolic evaluations that led directly to the identification of oxidative stress as a hallmark of T-cell exhaustion. We therefore evaluated whether adding N-acetylcysteine (10 mM) to T-cell media every 48 hours during days 2-8 of chronic stimulation would be sufficient to reverse the effects of chronic stimulation on T-cell growth and effector function. […] To determine this, T-cells that had been acutely or chronically stimulated in the presence or absence of 10 mM N-acetylcysteine were assessed for Tcf7 expression via real-time quantitative PCR. […]

[3] = tested on: tumor cells expressing specific antigen; test: Killing of tumor cells expressing specific antigen by chronically stimulated T-cells (co-culture)
Procedure: as §1
Ultimately, the hallmark of T-cell exhaustion in the context of both chronic viral infections and cancer requires a loss of effector function, defined as the absence of target cell killing. Therefore, it was imperative to establish that exhausted cells generated using this in vitro system were not able to kill target cells. […] 24 hours later luminescence was measured using a luminometer. Killing efficacy was determined by luminescence relative to B16 cells co-cultured with T-cells in the absence of specific peptide.
The in vitro system that developed and described herein allowed for metabolic evaluations that led directly to the identification of oxidative stress as a hallmark of T-cell exhaustion. We therefore evaluated whether adding N-acetylcysteine (10 mM) to T-cell media every 48 hours during days 2-8 of chronic stimulation would be sufficient to reverse the effects of chronic stimulation on T-cell growth and effector function. […]

[4] = tested on: exhausted CAR-T cells; test: Proliferative capacity of exhausted CD19-specific CAR-T cells isolated from lymphoma-bearing mice; details: exhausted CD19 CAR-T cells isolated 14 days after transfer into A20 lymphoma mice; 10 mM in culture media
Text: (§2) FIG. 15A-C N-acetylcysteine reverses CAR-T cell exhaustion. Exhausted CAR-T cells were generated by transferring CD19-specific CAR-T cells into mice bearing CD19-expressing A20 lymphoma cells. After 14 days, CAR-T cells were isolated from mouse spleens and interrogated for proliferative capacity, oxidative stress, and cytokine production. […] The in vitro system that developed and described herein allowed for metabolic evaluations that led directly to the identification of oxidative stress as a hallmark of T-cell exhaustion. We therefore evaluated whether adding N-acetylcysteine (10 mM) to T-cell media every 48 hours during days 2-8 of chronic stimulation would be sufficient to reverse the effects of chronic stimulation on T-cell growth and effector function. […] FIGS. 12-16. Moreover, this strategy was also effective in reversing the exhaustion of chimeric antigen receptor (CAR) T-cells. For this assay, T-cells retrovirally infected to express a chimeric antigen receptor targeting CD19 were adoptively transferred into mice who had previously received A20 B-cell lymphoma cells. This protocol is known to generate “exhausted” CAR T-cells by Day 14 following CAR T-cell transfer. […] FIG. 16. To determine this, T-cells that had been acutely or chronically stimulated in the presence or absence of 10 mM N-acetylcysteine were assessed for Tcf7 expression via real-time quantitative PCR. […]

[5] = tested on: exhausted CAR-T cells; test: Oxidative stress (reactive oxygen species) in exhausted CAR-T cells; details: exhausted CD19 CAR-T cells isolated 14 days after transfer, re-stimulated with anti-CD3 and anti-CD28; 10 mM
Text: as §2

[6] = tested on: exhausted CAR-T cells; test: Cytokine production of exhausted CAR-T cells; details: exhausted CD19 CAR-T cells isolated 14 days after transfer; 10 mM
Text: as §2

[7] = tested on: Tcf7; test: Tcf7 expression in chronically stimulated T-cells (real-time quantitative PCR); details: chronically stimulated CD3+ T cells, 8 days, 10 mM N-acetylcysteine
Text: FIG. 16A-B. N-acetylcysteine restores T-cell memory. Isolated CD3+ T cells were stimulated acutely or chronically as described herein. […] Tumor-infiltrating T-cells from patients with melanoma who received checkpoint inhibitors were extracted and analyzed by single-cell RNA-seq. […] The in vitro system that developed and described herein allowed for metabolic evaluations that led directly to the identification of oxidative stress as a hallmark of T-cell exhaustion. We therefore evaluated whether adding N-acetylcysteine (10 mM) to T-cell media every 48 hours during days 2-8 of chronic stimulation would be sufficient to reverse the effects of chronic stimulation on T-cell growth and effector function. […] FIGS. 12-16. Moreover, this strategy was also effective in reversing the exhaustion of chimeric antigen receptor (CAR) T-cells. For this assay, T-cells retrovirally infected to express a chimeric antigen receptor targeting CD19 were adoptively transferred into mice who had previously received A20 B-cell lymphoma cells. This protocol is known to generate “exhausted” CAR T-cells by Day 14 following CAR T-cell transfer. […] FIG. 16. To determine this, T-cells that had been acutely or chronically stimulated in the presence or absence of 10 mM N-acetylcysteine were assessed for Tcf7 expression via real-time quantitative PCR. […]

[8] = tested on: chronically stimulated T-cells; test: Intracellular ophthalmate levels in chronically stimulated T-cells (LC-MS); details: chronically stimulated CD3+ T cells, 8 days, 10 mM N-acetylcysteine
Procedure: FIG. 18A-C. Ophthalmate is a biomarker for oxidative stress in exhausted T-cells and is reversed by N-acetylcysteine. Isolated CD3+ T cells were stimulated acutely or chronically as described herein in the presence or absence of N-acetylcysteine (10 mM). After 8 days, cells were analyzed for intracellular ophthalmate levels by LC-MS. […] Ophthalmate levels were higher in chronically stimulated T-cells (FIG. 18B) and this was reversed by administration of N-acetylcysteine (FIG. 18C).

CC(=O)N[C@@H](CS)C(=O)O [N-acetylcysteine]
T-cell proliferation under chronic stimulation [1]: fully reverses the impairment in proliferation; also recorded: fully reverse | cytokine production of chronically stimulated T-cells [2]: effectively reversed; also recorded: fully reverse | anti-PD-1 responsiveness of chronically stimulated T-cells ([3]; 10 mM N-acetylcysteine every 48 hours during days 2-8 of chronic stimulation): fully restored | tumor / target cell killing by chronically stimulated T-cells ([3]; 8 days of culture, co-cultured with tumor cells expressing specific antigen, N-acetylcysteine 10 mM): effectively reversed; also recorded: fully restored | CAR-T cell proliferation [4]: enhanced CAR-T cell proliferation; also recorded: allowed CAR T-cells to proliferate | oxidative stress (reactive oxygen species) in CAR-T cells [5]: reducing oxidative stress; also recorded: could be reversed | CAR-T cell cytokine production [6]: enhanced; also recorded: allowed CAR T-cells to proliferate and produce cytokine | Tcf7 expression (memory marker) [7]: restored Tcf7 expression; also recorded: largely restored | intracellular ophthalmate levels [8]: reversed
